Test results taken from patent US20220273752A1, “MODULATION OF DENDRITIC CELL FUNCTION BY THE PHOSPHOLIPID MESSENGER LPA” (Cornell University, priority 2019, published 2022).

Columns and labels:
[1] = tested on: bone marrow-derived DCs; experiment: qPCR and Multiplex cytokine assays in BMDCs treated with LPA and Tunicamycin; format: cell-based, mouse
Protocol: FIG. 4A-4L graphically illustrate that induction of a set of highly tumorigenic and immunomodulatory genes is mainly PERK-dependent in LPA-exposed dendritic cells undergoing endoplasmic reticulum (ER) stress. Bone marrow-derived dendritic cells (BMDCs) from the indicated genotypes were left untreated or were incubated with LPA (100 μM), Tunicamycin (TM, 1 μg/ml) or with the combination of both for 6 hours. Gene expression was determined by qPCR. In all cases data, was normalized to endogenous Actb levels in each sample. These findings have further been confirmed using primary splenic dendritic cells and with an independent ER stressor, Thapsigargin (extensive data not shown). ***P<0.0005, ***P<0.0001. The serine/threonine-protein kinase/endoribonuclease inositol-requiring enzyme 1 α (IRE1α) in humans is encoded by the ERNI gene, and expression of the IRE1α protein is activated during endoplasmic reticulum (ER) stress. TM is a pharmacological ER stressor that causes protein glycosylation defects. FIG. 4A graphically illustrates expression of IL-1, in bone marrow-derived DCs from Ern1^f/f or Ern1^f/f Vav1-Cre (Ern1 knockout) mice with or without co-treatment by ER stressor Tunicamycin (TM) and/or physiological concentrations of LPA. […]

[2] = tested on: dendritic cells; experiment: Genome-wide transcriptional profiling of dendritic cells by RNA-seq; format: cell-based, murine; conditions: 100 μM LPA
Protocol: RNA was obtained from LPA-treated bone marrow-derived DCs (BMDCs) and RNA sequencing was performed. The RNA-sequencing data and Ingenuity Pathway Analyses (IPA) was performed on the RNA from LPA-treated bone marrow-derived DCs (BMDCs).

[3] = tested on: bone marrow derived DCs (BMDCs); experiment: LPA receptor gene expression in BMDCs by RNA-seq; format: cell-based, murine; parameters: Lpar1 expression level / Lpar3 expression level / Lpar4 expression level / Lpar5 expression level / Lpar6 expression level: unit not given here; conditions: RNA-seq relative expression
Protocol: FIG. 1 illustrates relative expression levels of genes encoding lysophosphatidic acid (LPA) receptors in the indicated murine dendritic cell (DC) populations, as determined by RNA-seq. Ovarian cancer DCs were sorted from tumor locations of mice bearing ID8-based metastatic ovarian carcinoma for 24 days.
Relative expression levels of genes encoding LPA receptors in the indicated dendritic cell (DC) populations was determined by RNA-seq.
FIG. 1 illustrates that murine bone marrow derived DCs (BMDCs) as well as DCs infiltrating ovarian tumors expressed significant levels of genes encoding various LPA receptors, particularly Lpar6 (see also Table 3).

[4] = tested on: TBK1 and IRF3 proteins in BMDCs; experiment: Western blot of TBK1 and IRF3 phosphorylation in BMDCs; format: cell-based, murine; conditions: LPS- or Poly(I:C)-treated BMDCs; compared with untreated
Protocol: The activation status of signaling pathways implicated in the optimal induction of type-I IFNs was then evaluated.

Question: Which “production of IL-1b, IL-6, VEGF-a, LIF, M-CSF, GRO-a (IL-8) and MIP1-a” value ([1]; BMDCs co-treated with Tunicamycin (TM) and LPA (100 µM), Multiplex cytokine assays) does the source give for lysophosphatidic acid [LPA] here?
Answer: significant PERK-dependent overproduction

Question: And the “expression of genes encoding IL-6, IL-1b, Arginase, Cox-2 and Vegf-A” value ([1]; ER-stressed DCs simultaneously exposed to LPA, qPCR)?
Answer: potent upregulation

Question: What about the “number of genes demonstrating severe deregulation” value [2] of the same substance?
Answer: ~4,000 genes

Question: What about the Lpar1 expression level ([3]; BMDC + LPA (2 hr.)) of the same substance?
Answer: 8.540

Question: And the Lpar2 expression level ([3]; BMDC + LPA (2 hr.))?
Answer: 0.303

Question: And the Lpar3 expression level ([3]; BMDC + LPA (2 hr.))?
Answer: 0.300

Question: And the Lpar4 expression level ([3]; BMDC + LPA (2 hr.))?
Answer: 0.040

Question: And the Lpar5 expression level ([3]; BMDC + LPA (2 hr.))?
Answer: 1.517

Question: And the Lpar6 expression level ([3]; BMDC + LPA (2 hr.))?
Answer: 62.313

Question: And the Lpar1 expression level ([3]; BMDC + LPA (6 hr.))?
Answer: 2.240

Question: What about the Lpar2 expression level ([3]; BMDC + LPA (6 hr.)) of the same substance?
Answer: 0.353

Question: And the Lpar3 expression level ([3]; BMDC + LPA (6 hr.))?
Answer: 0.253

Question: And the Lpar4 expression level ([3]; BMDC + LPA (6 hr.))?
Answer: 0.007

Question: What about the Lpar5 expression level ([3]; BMDC + LPA (6 hr.)) of the same substance?
Answer: 2.837

Question: What about the Lpar6 expression level ([3]; BMDC + LPA (6 hr.)) of the same substance?
Answer: 72.007

Question: And the “phosphorylation of TBK1 and IRF3 proteins” value [4]?
Answer: inhibited phosphorylation
